Measurements as given in PMC9564337, “Development of a Neurotensin-Derived ^68Ga-Labeled PET Ligand with High In Vivo Stability for Imaging of NTS1 Receptor-Expressing Tumors” (Cancers, 2022).
Like-named read-outs stand apart in the source and are kept apart here. Residues, ends and D or L forms follow the SMILES beside them.

How the values were obtained:
in vitro = in vitro ADME; conditions: human, plasma; for remaining at 1 h, 100 µM: pH 7.4, % Intact Peptide in Plasma after 1 h; for remaining at 6 h, 100 µM: pH 7.4, % Intact Peptide in Plasma after 6 h; for remaining at 24 h, 100 µM: pH 7.4, % Intact Peptide in Plasma after 24 h; for remaining at 48 h, 100 µM: pH 7.4, % Intact Peptide in Plasma after 48 h
Experimental: The concentration of the peptides in plasma/PBS (1:2 v/v) was 80 and 4 μM (recovery determination) or 100 μM (stability tests). Data analysis was based on UV detection at 220 nm (8, 9, 11, 12, 14-18, 21-23, 38-49, and 54-57) or fluorescence detection at 275/305 nm (19 and 20). Reference samples, representing 100% recovery, were prepared in duplicate (8, 9, 11, 14-16, and 19-21) or quadruplicate (12, 17, 18, 22, 23, 38-49, and 54-57). Recovery ratios were obtained by dividing the recovery of the peptide by the recovery of IS for each individual sample (n = 3-5). The obtained recoveries and the recovery ratios are summarized in Table S2, Supplementary Materials. […] Instead, the recovery ratios determined for the previously reported, structurally closely related peptide […] [40] were used for calculating the amount of remaining intact peptide in plasma.

hNTS1R = molecular target: T1, hNTS1R (Homo sapiens, UniProt P30989); test: radioligand competition binding with [3H]UR-MK300 at intact HT-29 cells
T1 construct: intact HT-29 colon carcinoma cells expressing the hNTS1R; host or cells: HT-29 human colon carcinoma cells
T1 sequence (P30989 whole entry): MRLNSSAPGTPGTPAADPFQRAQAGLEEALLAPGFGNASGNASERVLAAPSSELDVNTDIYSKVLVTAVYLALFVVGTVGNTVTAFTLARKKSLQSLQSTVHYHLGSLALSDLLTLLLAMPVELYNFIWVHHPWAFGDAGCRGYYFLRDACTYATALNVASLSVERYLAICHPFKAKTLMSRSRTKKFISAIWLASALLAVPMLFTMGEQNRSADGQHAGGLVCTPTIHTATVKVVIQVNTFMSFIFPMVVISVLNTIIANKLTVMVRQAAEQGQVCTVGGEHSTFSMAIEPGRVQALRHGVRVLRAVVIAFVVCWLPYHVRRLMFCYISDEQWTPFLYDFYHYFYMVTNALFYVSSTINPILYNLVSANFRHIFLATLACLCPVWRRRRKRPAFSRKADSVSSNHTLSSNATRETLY
From the text: Specific binding data (obtained by subtracting unspecific binding from total binding) were normalized (100% = specifically bound radioligand in the absence of competitor) and plotted over log(concentration of competitor) followed by a four-parameter logistic fit (SigmaPlot 12.5, Systat Software, San José, CA, USA) (note: in the case of 40, the lower curve plateau of the sigmoidal fit was constrained to >0). […] The Ki values from individual experiments were transformed to pKi values, followed by the calculation of mean pKi values ± SD.

[1] = [3H]UR-MK300 c = 1 nM, HT-29 cells, 23 °C, read-out: Ki [nM] NTS1R (converted)
[2] = [3H]UR-MK300 c = 1 nM, HT-29 cells, 23 °C, read-out: pKi ± SD NTS1R (converted)

Row | remaining at 1 h, 100 µM (in vitro) | remaining at 6 h, 100 µM (in vitro) | remaining at 24 h, 100 µM (in vitro) | remaining at 48 h, 100 µM (in vitro) | Ki (hNTS1R; [1]) | Ki (hNTS1R; [2]) | lower NTS1R affinity compared to 56 (hNTS1R; 57 versus 56) | pKi ± SD NTS1R (hNTS1R; [3H]UR-MK300 c = 1 nM, HT-29 cells, 23 °C) | Structure (SMILES)
1 | 88 ± 1% | 58 ± 1% | < 1% | < 1% | 9.6 nM | 8.91 nM | – | – | CN[C@@H](CCCNC(=N)N)C(=O)N[C@@H](CCCNC(=N)N)C(=O)N1CCC[C@H]1C(=O)N[C@@H](Cc1ccc(O)cc1)C(=O)N[C@H](C(=O)N[C@@H](CC(C)C)C(=O)O)C1CC1 [Compound 40]
2 | 92 ± 1% | 74 ± 1% | 15 ± 1% | < 1% | 5 nM | – | – | – | CN[C@@H](CCCNC(=N)N)C(=O)N[C@@H](CCCNC(=N)N)C(=O)N1CCC[C@H]1C(=O)N[C@@H](Cc1ccc(O)cc1)C(=O)N[C@@H](CC1CC1)C(=O)N[C@@H](CC(C)C)C(=O)O [Compound 41]
3 | 91 ± 1% | 79 ± 1% | 32 ± 1% | < 1% | 1.1 nM | 1.05 nM | – | – | CN[C@@H](CCCNC(=N)N)C(=O)N[C@@H](CCCNC(=N)N)C(=O)N1CCC[C@H]1C(=O)N[C@@H](Cc1ccc(O)cc1)C(=O)N[C@H](C(=O)N[C@@H](CC(C)C)C(=O)O)C1CCC1 [Compound 42]
4 | 99 ± 1% | 95 ± 1% | 78 ± 1% | 58 ± 1% | 1.2 nM | – | – | – | CN[C@@H](CCCNC(=N)N)C(=O)N[C@@H](CCCNC(=N)N)C(=O)N1CCC[C@H]1C(=O)N[C@@H](Cc1ccc(O)cc1)C(=O)N[C@H](C(=O)N[C@@H](CC(C)C)C(=O)O)C1CCCC1 [Compound 43]
5 | 25 ± 2% | < 1% | < 1% | < 1% | 2.6 nM | 2.34 nM | – | – | CC[C@H](C)[C@H](NC(=O)[C@H](Cc1ccc(O)cc1)NC(=O)[C@@H]1CCCN1C(=O)[C@H](CCCNC(=N)N)NC(=O)[C@H](CCCNC(=N)N)NC)C(=O)N[C@@H](CC1CC1)C(=O)O [Compound 46]

Continued, compound first:

Row | Structure (SMILES) | remaining at 1 h, 100 µM (in vitro) | remaining at 6 h, 100 µM (in vitro) | remaining at 24 h, 100 µM (in vitro) | remaining at 48 h, 100 µM (in vitro) | Ki (hNTS1R; [1]) | Ki (hNTS1R; [2]) | lower NTS1R affinity compared to 56 (hNTS1R; 57 versus 56) | pKi ± SD NTS1R (hNTS1R; [3H]UR-MK300 c = 1 nM, HT-29 cells, 23 °C)
6 | CCC(CC)(NC(=O)[C@H](Cc1ccc(O)cc1)NC(=O)[C@@H]1CCCN1C(=O)[C@H](CCCNC(=N)N)NC(=O)[C@H](CCCNC(=N)N)NC)C(=O)N[C@@H](CC(C)C)C(=O)O [Compound 39] | 93 ± 1% | 94 ± 1% | 93 ± 1% | 93 ± 1% | > 1000 nM | > 1000 nM | – | –
7 | CN[C@@H](CCCNC(=N)N)C(=O)N[C@@H](CCCNC(=N)N)C(=O)N1CCC[C@H]1C(=O)N[C@@H](Cc1ccc(O)cc1)C(=O)N[C@@](C)(CC(C)C)C(=O)N[C@@H](CC(C)C)C(=O)O [Compound 44] (HELM PEPTIDE1{[meR].R.P.Y.[CC(C)C[C@](C)(N[*:1])C(=O)[*:2]].L}$$$$V2.0) | 94 ± 1% | 91 ± 4% | 91 ± 1% | 87 ± 1% | > 1000 nM | > 1000 nM | – | –
8 | CC[C@](C)(NC(=O)[C@H](Cc1ccc(O)cc1)NC(=O)[C@@H]1CCCN1C(=O)[C@H](CCCNC(=N)N)NC(=O)[C@H](CCCNC(=N)N)NC)C(=O)N[C@@H](CC(C)C)C(=O)O [Compound 45] | 93 ± 1% | 92 ± 1% | 86 ± 1% | 77 ± 1% | > 1000 nM | > 1000 nM | – | –
9 | CN[C@@H](CCCNC(N)=NC(=O)NCCCCNC(=O)CN1CCN(CC(=O)O)CCN(CC(=O)O)CCN(CC(=O)O)CC1)C(=O)N[C@@H](CCCNC(=N)N)C(=O)N1CCC[C@H]1C(=O)N[C@H](C(=O)N[C@H](C(=O)N[C@@H](CC(C)C)C(=O)O)C(C)(C)C)C(C)(C)c1ccc(O)cc1 [Compound 57] | > 99% | > 99% | 68 ± 1% | < 1% | 21 nM | – | 18 fold | 7.67 ± 0.04
